In patent US20230235290A1, “RECOMBINANT CARDIOMYOCYTES AND CARDIOMYOCYTE CELL LINES EXPRESSING HERG” (The Governors of the University of Alberta, priority 2016, published 2023):

Experiments:
hMYO-hERG cells = experiment: SetuBlue cell viability (cell proliferation) assay, fluorometric, on hMYO-hERG cells; type: cell-based, human
Method: (§1) Ninety-six (96) well plate(s) were seeded with hMYO-hERG cells containing approximately 1×10^4 cells/well. The plates were first incubated for 24 hours at 37° C., 5% CO2, followed by incubation for 48 hours at 28° C., 5% CO2. The wells were then treated with compound(s) of interest for 48 hours at standard cell cultural conditions. A negative control medium without cells was included to determine background signal.
(§2) The cells were then assayed for toxicity using a SetuBlue™ Cell Proliferation Assay Kit (Fluorometric) (BioIntersect, Catalog #F6009-2500-A). This kit uses a Blue indicator dye, Resazurin, to measure the metabolic capacity of cells. Resazurin is a non-fluorescent, cell permeable and non-toxic compound. Viable cells efficiently reduce the Blue indicator dye to resorufin, which is highly fluorescent and an indicator of cell viability.
(§3) The SetuBlue cell proliferation assay was performed as follows. The old media was aspirated and replaced with fresh 100 μl medium containing 10% volume of SetuBlue reagent containing the Blue indicator dye. The plates were incubated using standard cultural conditions for 1-4 hrs. The plates were than shaken for 10-20 seconds before recording fluorescence at 530/590 nm in PerkinElmer EnSpire® multimode plate reader. The relative fluorescence unit (“RFU”) value of each control well was subtracted from all RFU value to yield corrected RFU values. The corrected RFU values at 530/590 nm (Y axis, Log10 scale) were plotted against concentration of test compound (X axis). The CC50 value were determined by locating the X-axis value corresponding to one-half the maximum (plateau) RFU value using GraphPad Prism software.

[1] = as above; type: cell-based, human; settings: human; hMYO-hERG cells, 48 hours treatment, fluorescence 530/590 nm, GraphPad Prism
Method: as §1, §2, §3

hERG = hERG (Homo sapiens, UniProt Q12809); settings: literature statement; cited from earlier work
Chain of hERG (Q12809 whole entry): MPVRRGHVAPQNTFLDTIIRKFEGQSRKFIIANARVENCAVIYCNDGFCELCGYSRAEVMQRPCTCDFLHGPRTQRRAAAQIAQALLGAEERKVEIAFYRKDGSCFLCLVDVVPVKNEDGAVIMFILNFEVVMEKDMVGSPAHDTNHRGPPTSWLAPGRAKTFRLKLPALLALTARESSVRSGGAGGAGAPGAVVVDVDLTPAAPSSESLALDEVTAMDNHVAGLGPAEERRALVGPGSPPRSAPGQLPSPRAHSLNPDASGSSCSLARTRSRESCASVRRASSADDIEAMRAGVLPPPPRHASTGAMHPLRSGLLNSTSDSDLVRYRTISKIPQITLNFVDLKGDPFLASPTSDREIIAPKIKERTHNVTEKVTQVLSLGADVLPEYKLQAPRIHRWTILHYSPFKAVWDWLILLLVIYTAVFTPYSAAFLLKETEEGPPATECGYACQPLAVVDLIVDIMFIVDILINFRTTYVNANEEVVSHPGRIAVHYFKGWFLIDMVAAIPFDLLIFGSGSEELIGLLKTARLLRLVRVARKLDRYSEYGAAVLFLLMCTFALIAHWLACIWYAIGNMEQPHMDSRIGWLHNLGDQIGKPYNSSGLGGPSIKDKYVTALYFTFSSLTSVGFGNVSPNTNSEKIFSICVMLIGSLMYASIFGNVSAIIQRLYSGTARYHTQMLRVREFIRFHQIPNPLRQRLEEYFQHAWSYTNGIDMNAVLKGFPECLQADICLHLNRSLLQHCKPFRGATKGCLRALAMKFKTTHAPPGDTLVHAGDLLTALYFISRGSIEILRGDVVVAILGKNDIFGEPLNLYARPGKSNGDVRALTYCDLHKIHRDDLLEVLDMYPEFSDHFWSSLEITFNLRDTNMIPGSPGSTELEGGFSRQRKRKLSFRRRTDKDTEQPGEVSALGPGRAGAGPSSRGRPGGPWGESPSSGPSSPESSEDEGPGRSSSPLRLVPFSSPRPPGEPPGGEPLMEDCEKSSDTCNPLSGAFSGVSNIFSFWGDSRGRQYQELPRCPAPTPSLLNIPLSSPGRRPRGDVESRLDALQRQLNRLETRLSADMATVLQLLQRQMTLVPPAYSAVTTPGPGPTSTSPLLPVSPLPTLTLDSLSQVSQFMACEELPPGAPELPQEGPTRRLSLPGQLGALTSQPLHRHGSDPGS

| Compound | cardiotoxicity on the hMYO-hERG cells (hMYO-hERG cells; at concentrations as high as 400 μM, compared to control vehicle at 400 μM) | CC50 at 48 h [1] [µM] | concentrations at which cardiotoxic on the hMYO-hERG cell line (hMYO-hERG cells; hMYO-hERG cells, 48 hours treatment, FIG. 12A) | cardiotoxicity (known) (hERG) | hERG inhibitory activity (known) (hERG) |
| --- | --- | --- | --- | --- | --- |
| C=C[C@H]1C[N@@]2CC[C@H]1C[C@@H]2[C@@H](O)c1ccnc2ccc(OC)cc12 [quinidine] | not significantly cardiotoxic | – | – | – | – |
| COc1cccc2c1C(=O)c1c(O)c3c(c(O)c1C2=O)C[C@@](O)(C(=O)CO)C[C@@H]3O[C@H]1C[C@H](N)[C@H](O)[C@H](C)O1 [doxorubicin] | – | 42.3 | above 50 μM | long-term cardiotoxicity | only slight effects on hERG |
